# Source: ChEMBL document CHEMBL3832761, “MMV Pathogen Box Bioactivity Data” (2017)
# Assays:
# Plasmodium falciparum [1] = assay: Antimalarial activity: Asexual Blood Stage Plasmodium falciparum 3D7 IC50 (uM); type: functional, organism-based
# Plasmodium falciparum [2] = assay: Antimalarial activity: Asexual Blood Stage Plasmodium falciparum Dd2 IC50 (uM); type: functional, organism-based
# Plasmodium falciparum [3] = assay: Antimalarial activity: Asexual Blood Stage Plasmodium falciparum W2 IC50 (uM); type: functional, organism-based
# Plasmodium berghei = assay: Antimalarial activity: Liver Stage Plasmodium berghei sporozoite Luciferase assay: inhibition at 10 uM (%); type: functional
# Plasmodium falciparum [4] = assay: Antimalarial activity: Gametocytes Plasmodium falciparum NF54 Gametocytes Stage V: inhibition at 10 uM (%); type: functional
# HepG2 [5] = assay: HepG2 inhibition at 10 uM (%) Cytotoxicity; type: functional; settings: Homo sapiens
# HepG2 [6] = assay: Cytotoxicity data HepG2 CC20 (uM); type: functional
# MRC5 = assay: MRC5 CC50 (uM) Cytotoxicity; type: functional; settings: Homo sapiens
Compound,IC50 (Plasmodium falciparum [1]) [µM],IC50 (Plasmodium falciparum [2]) [µM],IC50 (Plasmodium falciparum [3]) [µM],Inhibition (Plasmodium berghei) [%],Inhibition (Plasmodium falciparum [4]) [%],inhibition at 10 µM (HepG2 [5]) [%],CC20 (HepG2 [6]) [µM],inhibition (Plasmodium berghei),inhibition (Plasmodium falciparum [4]),CC50 (MRC5) [µM]
Cc1ccc2[nH]c3c(NCCN(C)C)ncnc3c2c1,0.79,1.31,4,0,21,4,–,–,–,–
Cc1ccc2cc(C3NC(=O)c4ccccc4N3)c(Cl)nc2c1 (stereo not drawn),1.66,2.32,0.99,37,0,2,>80,–,–,–
CCc1cc(=O)n(C)c(SC(C)C(=O)Nc2ccc(F)cc2)n1 (stereo not drawn),1.97,1.99,2.09,47,0,25,–,–,–,–
CC(C)c1ncc(-c2ccncc2)c([C@H]2CC[C@H](CNC(=O)c3cccnc3)CC2)n1,0.84,1,0.66,0,3,0,>80,–,–,–
Cc1cc(C)n(-c2ccc(NC(=O)C3CCN(Cc4cnc(C)s4)CC3)cc2)n1,0.78,2.46,1.87,38,0,18,–,–,–,–
O=C(C(Cc1c[nH]c2ccccc12)NS(=O)(=O)c1ccc(Cl)cc1)N1CCCCC1 (stereo not drawn),> 2,2,–,0,23,9,21.9,–,–,–
COc1ccc(-c2cncc3ccc(C(=O)NCCCn4ccnc4)nc23)cc1,1.08,1.35,1.72,98,71.3,47,–,–,–,–
Cc1cc(NCC(C)C)c2[nH]nc(-c3ccccc3)c2n1,1.4,–,2.38,–,–,9,–,–,–,–

# Now those with a lower IC50 (Plasmodium falciparum [1]), led by results:
IC50 (Plasmodium falciparum [1]) [µM],IC50 (Plasmodium falciparum [2]) [µM],IC50 (Plasmodium falciparum [3]) [µM],Compound,Inhibition (Plasmodium berghei) [%],Inhibition (Plasmodium falciparum [4]) [%],inhibition at 10 µM (HepG2 [5]) [%],CC20 (HepG2 [6]) [µM],inhibition (Plasmodium berghei),inhibition (Plasmodium falciparum [4]),CC50 (MRC5) [µM]
0.54,1.88,0.58,O=C(Nc1cnc2ccccc2c1)c1cccc(-n2cnnn2)c1,0,1,0,>80,–,–,–
0.27,0.2,0.47,FC(F)(F)c1cnc(Sc2nnc(-c3ccncc3)o2)c(Cl)c1,75,0,28,–,–,–,–
0.1,–,–,O=C(NCCN1CCCC1)c1cc(NCCN2CCOCC2)nc2ccc(Cl)cc12,–,–,–,–,Series known to be active,Series known to be active,33.5
0.42,0.42,0.8,CN1CCN(S(=O)(=O)c2ccc(-c3ccc4c(Nc5ccc6nn[nH]c6c5)ccnc4c3)cc2)CC1,0,8,0,>80,–,–,–
0.1,–,–,Cc1ccc(-c2cc(C(=O)Nc3cccnc3)c3cc(Br)ccc3n2)cc1,–,–,–,–,Series known to be active,Series known to be active,20
0.12,0.2,0.26,Cc1nn(C)cc1C(C)Nc1nncc(-c2ccc(C(F)(F)F)cc2)n1 (stereo not drawn),45,0,19,–,–,–,–
0.61,1.6,2.45,c1ccc2c(c1)CN(CC1CC1)CC1(CCN(Cc3c[nH]c4cnccc34)CC1)O2,89,8.4,35,–,–,–,–
0.58,3.26,1.02,COc1cc(OC)cc(C(=O)NCC2Cc3cc(Cl)cc(-c4ccncc4)c3O2)c1 (stereo not drawn),52,12.1,9,–,–,–,–
